Results as given in article PMC11134331, “Cell-active small molecule inhibitors validate the SNM1A DNA repair nuclease as a cancer target” (Chemical Science, 2024).
Read-outs that look alike come from different tables or passages of the source.

Assays:
[1] = target: T1, SNM1B (Homo sapiens, UniProt Q9H816); assay: gel-based nuclease assay, SNM1B; format: biochemical; conditions: 1 nM SNM1B
T1 construct: for the MBL and β-CASP domains of SNM1B (aa 1–335) into baculoviral expression vectors pFB-CT10HF-LIC; made in house; host or cells: Sf9 insect cells (baculovirus)
T1 sequence (Q9H816 1-335): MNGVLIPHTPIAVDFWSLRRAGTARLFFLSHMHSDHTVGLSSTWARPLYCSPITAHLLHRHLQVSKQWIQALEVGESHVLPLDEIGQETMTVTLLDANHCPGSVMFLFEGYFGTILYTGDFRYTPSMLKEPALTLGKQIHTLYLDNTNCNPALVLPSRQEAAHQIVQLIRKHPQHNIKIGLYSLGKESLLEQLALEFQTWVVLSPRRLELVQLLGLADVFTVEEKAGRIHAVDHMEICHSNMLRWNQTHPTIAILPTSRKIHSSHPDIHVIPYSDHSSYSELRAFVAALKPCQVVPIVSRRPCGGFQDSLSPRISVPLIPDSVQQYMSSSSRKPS
Source text: (§1) To validate the inhibition of SNM1A, SNM1B, and SNM1C observed in the fluorescence-based screening assays, we then performed gel-based assays using 3′ terminally-labelled oligonucleotide substrates that enable both quantitative and qualitative (visual) assessment of the pattern of inhibition, for a subset of compounds. Importantly, whereas the fluorescence-based assay measures a single hydrolytic event at the substrate terminus, the gel-based nuclease assay informs on the pattern of digestion of the entire 51-mer substrate DNA over time.
(§2) Standard exonuclease assays were carried out in a 10 μL final volume containing 20 mM HEPES-KOH, pH 7.5, 50 mM KCl, 0.5 mM TCEP, 10 mM MgCl2, 0.05% (v/v) Triton X-100, 5% (v/v) glycerol, and SNM1 proteins as indicated. Inhibitors were dissolved in DMSO and diluted immediately prior to the reaction in the above buffer. Inhibitors were serially diluted two-fold from 100 μM. The DMSO concentration was kept constant at 0.1% (v/v) in the final reaction mixture. Inhibitors were incubated with the indicated SNM1 enzyme for 10 minutes at room temperature; reactions were initiated by addition of 10 nM DNA substrate and incubated at 37 °C for 20 min. Reactions were quenched by addition of 5 μL stop solution (95% formamide, 10 mM EDTA, 0.25% (v/v) xylene cyanol, 0.25% (v/v) bromophenol blue) and heated at 95 °C for 3 min. Reactions were analysed by 20% denaturing polyacrylamide gel electrophoresis solution of 19 : 1 acrylamide:bis-acrylamide, BioRad and 7 M urea (Sigma Aldrich) in 1 × TBE (Tris-borate EDTA) buffer. Electrophoresis was carried out at 525 V for 75 minutes; gels were subsequently fixed for 60 minutes in a 50% (v/v) methanol, 10% (v/v) acetic acid solution, and dried at 80 °C for two hours under vacuum. Dried gels were exposed to a Kodak Phosphor imager screen and scanned using a Typhoon 9500 instrument (GE Healthcare), scanned images were quantified using ImageJ.
Suppl. Figure 10. Increasing concentrations (as indicated, in μM) of compounds incubated with 1 nM SNM1B or 2.5 nM SNM1C (room temperature, 10 min), before initiating nuclease reaction by addition of ssDNA (37 °C, 20 min). Products were analysed by 20% denaturing PAGE. Gels are representative versions from a minimum of three independent experimental repeats.
(1 picture or pasted object on this page, not shown here)

[2] = target: T2, SNM1C (Homo sapiens, UniProt Q96SD1); assay: gel-based nuclease assay, SNM1C; format: biochemical; conditions: 2.5 nM SNM1C
T2 construct: for the MBL and β-CASP domains of SNM1C (aa 1–362) into the baculovirus expression vector pBF-6HZB; made in house; host or cells: Sf9 insect cells (baculovirus)
Source text: as §1, §2
Suppl. Figure 10. […] Products were analysed by 20% denaturing PAGE. […]

[3] = test system: U2OS (osteosarcoma) cells; assay: clonogenic survival assay, U2OS cells; format: cell-based, human
Experimental: (§3) Clonogenic assays were performed in 10 cm tissue culture dishes (for RPE-1 cells, U2OS cells and derived clones). Cells (1000 per dish) were seeded in complete media (10 mL) and allowed to attach overnight, then treated with cisplatin or cisplatin plus inhibitor for the times stated. Following treatments, cells were allowed to grow and form colonies for 10 days. Colonies formed were stained with Coomassie R250 (Sigma) and counted on a COLCount Colony Counter (Oxford Optronix). All experiments represent the mean (±SEM) of at least three biological repeats of duplicate dishes/flasks for each treatment.

[4] = test system: SNM1A- cells generated in U2OS background; assay: clonogenic survival assay, SNM1A- U2OS cells; format: cell-based, human; conditions: 50 μM compound
Experimental: as §3

[5] = test system: RPE-1 cells; assay: clonogenic survival assay, RPE-1 cells; format: cell-based, human
Experimental: as §3

[6] = test system: γH2AX foci in RPE-1 cells; assay: microscopic analysis of damage-induced subnuclear foci, RPE-1 cells; format: cell-based, human
Experimental: To assess the number of nuclear foci following cisplatin/inhibitor treatments, cells were plated in glass bottom dishes (as above) and allowed to attach. Following treatment, cells were fixed with 4% (v/v) formaldehyde in PBS, blocked with immunofluoresence (IF) blocking buffer (5% horse serum, 1% saponin in PBS) for 1 h, then incubated with primary antibodies at the desired concentrations in IF blocking buffer (overnight, 4 °C).
Images were imported into ImageJ and foci were counted using a macro adjusting for staining levels between experiments. Anti-γH2AX antibodies were a mouse monoclonal (Millipore; JBW301).

[7] = target: T3, SNM1A (Homo sapiens, UniProt Q6PJP8); assay: gel-based nuclease assay, SNM1A; format: biochemical; set-up: DNA encoding for the MBL and β-CASP domains of SNM1A (aa 676–1040) was cloned into the baculovirus transfer vector pFB-LIC-Bse; inferred from vector pFB-LIC-Bse and the IMAC purification; made in house; host or cells: Sf9 insect cells (baculovirus)
T3 sequence (Q6PJP8 676-1040): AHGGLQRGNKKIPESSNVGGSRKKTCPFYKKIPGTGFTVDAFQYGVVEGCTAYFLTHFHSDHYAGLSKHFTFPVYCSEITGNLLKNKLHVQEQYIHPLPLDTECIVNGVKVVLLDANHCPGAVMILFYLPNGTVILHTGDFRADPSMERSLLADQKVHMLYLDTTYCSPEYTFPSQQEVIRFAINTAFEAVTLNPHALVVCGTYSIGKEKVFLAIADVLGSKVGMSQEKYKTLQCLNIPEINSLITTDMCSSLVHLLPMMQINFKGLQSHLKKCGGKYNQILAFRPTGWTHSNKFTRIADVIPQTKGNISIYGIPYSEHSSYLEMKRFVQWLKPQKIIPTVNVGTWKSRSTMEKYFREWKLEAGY
Source text: as §1, §2

T2 sequence (Q96SD1 1-362): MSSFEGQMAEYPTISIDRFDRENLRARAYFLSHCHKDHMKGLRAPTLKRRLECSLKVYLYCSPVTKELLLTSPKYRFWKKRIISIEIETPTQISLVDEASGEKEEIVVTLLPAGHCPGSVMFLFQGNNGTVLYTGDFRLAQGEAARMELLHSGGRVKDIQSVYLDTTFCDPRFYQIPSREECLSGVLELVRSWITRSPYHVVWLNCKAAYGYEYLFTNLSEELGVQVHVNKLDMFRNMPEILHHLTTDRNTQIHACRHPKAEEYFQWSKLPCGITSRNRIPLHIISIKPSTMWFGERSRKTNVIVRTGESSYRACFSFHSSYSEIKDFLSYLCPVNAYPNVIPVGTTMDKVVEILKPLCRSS

C[C@H](Nc1nc(NCc2ccco2)nc2ccc(Cl)cc12)C(=O)NO [compound 19] was tested, and the “inhibition of SNM1B in gel-based assay” value [1] was “inhibits each of SNM1A–C”, the “inhibition of SNM1C in gel-based assay” value [2] was “inhibits each of SNM1A–C” and the “effect on cisplatin cytotoxicity” value ([3]; U2OS wild-type, 50 μM compound 20 hours pre-treatment, 0–15 μM cisplatin) was “potentiation of cisplatin cytotoxicity”. The “cell death as single agent” value ([3]; U2OS, 50 μM compound) was ≤ 10%, the “cytotoxicity as single agent” value ([3]; U2OS, 100 μM compound) was “some cell death” and the “effect on cisplatin sensitivity” value [4] was “similarly sensitive to cisplatin treatment in the presence or absence of 19”. For the same molecule, the “effect on cisplatin sensitivity” value ([5]; RPE-1, 50 μM compound) was “did not substantially increase”, the “reduction in survival as single agent” value ([5]; RPE-1, 50 μM compound) was “negligible reduction in survival” and the “toxicity as single agent” value ([5]; RPE-1, 100 μM compound) was “mild toxicity”. For the same molecule, the “average γH2AX foci count at 24 hours” value ([6]; RPE-1, cisplatin treated with 50 μM 19) was 21.2 ± 0.7 foci, the “increase of average γH2AX foci count following pretreatment” value ([6]; RPE-1, cisplatin treated, 24 hours) was 2 fold and the “inhibition of SNM1A in gel-based assay” value ([7]; 0.5 nM SNM1A) was “inhibits each of SNM1A–C”. For the same molecule, the IC50 ([7]; Suppl. Figure 11C, three independent experiments, read-out: SNM1A IC50 estimated from densitometric analysis of gel based assays) was 7.6 µM and the IC50 ([7]; direct quantification of ratio between intact substrate and digestion product, read-out: SNM1A IC50 estimated from gel-based assay) was ~8 µM.
